In PubChem BioAssay (NCI):
“And” between values parts separate entries of the source, which are not always exact repeats. Equal values may be shown once.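 Protocol summary: plate cells (96-well), add compound at 5 concentrations, incubate 48 h, interpolate endpoints linearly. Abbreviation: GI50, concentration required for 50% inhibition of growth. At the TGI there is no net growth.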

Columns and labels:
Test in all cases: inhibition of tumour cell growth, NCI panel, 48 h
MCF7 breast = test system: MCF7 breast
HS 578T breast = test system: HS 578T breast
U251 CNS = test system: U251 CNS
OVCAR-3 ovarian = test system: OVCAR-3 ovarian
BT-549 breast = test system: BT-549 breast
SK-MEL-5 melanoma = test system: SK-MEL-5 melanoma
SK-MEL-28 melanoma = test system: SK-MEL-28 melanoma
EKVX NSCLC = test system: EKVX NSCLC
OVCAR-4 ovarian = test system: OVCAR-4 ovarian
786-0 renal = test system: 786-0 renal

Compound	GI50 (MCF7 breast)	TGI (MCF7 breast)	GI50 (HS 578T breast)	TGI (HS 578T breast)	GI50 (U251 CNS)	TGI (U251 CNS)	GI50 (OVCAR-3 ovarian)	TGI (OVCAR-3 ovarian)	GI50 (BT-549 breast)	TGI (BT-549 breast)	GI50 (SK-MEL-5 melanoma)	TGI (SK-MEL-5 melanoma)	GI50 (SK-MEL-28 melanoma)	TGI (SK-MEL-28 melanoma)	GI50 (EKVX NSCLC)	TGI (EKVX NSCLC)	GI50 (OVCAR-4 ovarian)	TGI (OVCAR-4 ovarian)	GI50 (786-0 renal)	TGI (786-0 renal)
O=C(CN1CCN(CCCOc2c(-c3ccccc3)oc3ccccc3c2=O)CC1)Nc1ccc(Cl)cc1C(=O)c1ccccc1Cl	3.5 µM	26.5 µM	8.45 µM	60.8 µM	5.86 µM	19.1 µM	5.79 µM	19.5 µM	14.1 µM	40.5 µM	5.93 µM	25.2 µM	3.66 µM	15.2 µM	22.7 µM	> 100 µM	7.48 µM	54.8 µM	5.58 µM	19.4 µM
O=C(CNc1ccc2c(c1)C(=O)c1ccccc1C2=O)Nc1ccc2c(c1)C(=O)c1ccccc1C2=O	0.809 µM	2.6 µM	2.29 µM	13.2 µM	0.449 µM	1.57 µM	0.71 µM	1.83 µM	0.641 µM	1.99 µM	0.25 µM	0.669 µM	1.68 µM	3.13 µM	1.88 µM	4.02 µM	1.5 µM	4.05 µM	0.451 µM	1.69 µM
CCOC(=O)c1[nH]c(Br)c(-c2ccc(Br)cc2)c1Br	0.895 µM	> 100 µM	–	13.2 µM	0.394 µM	3.55 µM and 1.93 µM	0.37 µM	0.759 µM and 1.61 µM	8.52 µM	–	–	19.1 µM	–	22.1 µM	0.852 µM	17.3 µM	–	3.6 µM and 3.5 µM	0.535 µM	1.92 µM and 2.72 µM
COc1ncc(-c2ccc3nccc(-c4ccnnc4)c3c2)cc1NS(=O)(=O)c1ccc(F)cc1F	0.00101 µM and < 0.01 µM	> 10 µM and 11 µM	0.00212 µM and < 0.01 µM	0.0433 µM and 0.023 µM	0.0194 µM and < 0.0147 µM	> 3.43 µM and 0.923 µM	0.00901 µM and < 0.0109 µM	0.763 µM and 0.376 µM	0.00392 µM and < 0.01 µM	0.0688 µM and 0.0434 µM	0.0237 µM and 0.0154 µM	0.141 µM and 0.0966 µM	0.00213 µM and < 0.01 µM	0.0395 µM and 0.36 µM	0.0138 µM and 0.013 µM	1.23 µM and 1.73 µM	0.033 µM and 0.0217 µM	–	0.00651 µM and < 0.01 µM	0.0791 µM and 0.106 µM
O=C(/C=C/c1cccnc1)NCCCCC1CCCN(C(=O)c2ccccc2)C1 (stereo unspecified)	37.5 µM	> 100 µM	4.45 µM	> 100 µM	< 0.01 µM	> 100 µM	> 47.9 µM	> 100 µM	–	> 100 µM	< 0.0273 µM	> 100 µM	> 100 µM	> 100 µM	> 63.1 µM	> 100 µM	> 74 µM	> 100 µM	> 64.3 µM	> 100 µM
COc1ccccc1CCN=C1NC(=O)/C(=C/c2ccc3ncccc3c2)S1	1.63 µM	> 23.9 µM	7.39 µM	> 18.1 µM	4.1 µM	24.9 µM	4.99 µM	12.2 µM	6.22 µM	> 20.5 µM	5.92 µM	17.6 µM	8.22 µM	> 25 µM	–	–	4.27 µM	20.5 µM	8.24 µM	> 25 µM
COc1cc(C)c(Cl)cc1C1=NN(c2ccc(S(N)(=O)=O)cc2)C(/C=C/c2ccccc2)C1 (stereo unspecified)	2.55 µM	9.13 µM	2.89 µM	9.83 µM	3.12 µM	11.3 µM	2.61 µM	6.46 µM	2.35 µM	4.76 µM	1.61 µM	3 µM	3.1 µM	11.4 µM	2.68 µM	22 µM	2.77 µM	24.9 µM	3.67 µM	11.9 µM
O=C(c1ccco1)c1nc2cc(Cl)ccc2[n+]([O-])c1C(F)(F)F	41 µM	> 100 µM	> 100 µM	> 100 µM	70.9 µM	> 100 µM	> 100 µM	> 100 µM	35.1 µM	> 100 µM	20.3 µM	49.6 µM	90.1 µM	> 100 µM	37.6 µM	> 100 µM	29.2 µM	75.7 µM	> 100 µM	> 100 µM
COc1ccc(-n2nnnc2-c2c[nH]c3c(F)cc(F)cc23)cc1	> 100 µM	> 100 µM	> 100 µM	> 100 µM	32.2 µM	> 100 µM	> 100 µM	> 100 µM	> 100 µM	> 100 µM	> 100 µM	> 100 µM	> 100 µM	> 100 µM	> 100 µM	> 100 µM	55 µM	> 100 µM	31.5 µM	> 100 µM
Cn1c(/C=C(\C#N)c2ccccc2)nc2c(N3CCOCC3)nc(Cl)nc21	0.48 µM	2.15 µM	1.69 µM	5.64 µM	1.47 µM	2.97 µM	0.673 µM	1.88 µM	0.711 µM	2.07 µM	1.64 µM	3.01 µM	1.57 µM	2.96 µM	1.42 µM	3.04 µM	1.13 µM	2.5 µM	1.56 µM	3.05 µM
C=C1C(=O)O[C@H]2[C@H]1CC/C(Cn1cc(-c3cc(C(F)(F)F)cc(C(F)(F)F)c3)nn1)=C\CC[C@@]1(C)O[C@@H]21	0.198 µM	1.19 µM	1.03 µM	4.23 µM	1.44 µM	2.76 µM	0.152 µM	0.358 µM	0.178 µM	0.509 µM	1.47 µM	2.78 µM	0.465 µM	1.65 µM	1.5 µM	2.95 µM	0.508 µM	1.8 µM	0.163 µM	0.311 µM
NC(=S)N/N=C(\Cc1nc2ccc(Cl)cc2[nH]c1=O)C(=O)Nc1ccc(Cl)cc1	–	> 100 µM	–	> 100 µM	–	> 100 µM	–	> 100 µM	–	> 100 µM	–	> 100 µM	–	> 100 µM	–	> 100 µM	–	> 100 µM	–	> 100 µM
